Patent publication US7943140B2, “Compositions and methods for the treatment and prophylaxis of multiple strains and subtypes of HIV-1” (priority 2006, dated 2011)
Marks after values point to notes of the source that are not given here.

How the values were obtained:
[1] = tested on: HIV-1 Tat (rTat, AA 1-72 variants); assay: Anti-Tat serum antibody titer (ELISA on rTat) after immunization of rats; format: in vivo, rat; settings: for 4 week anti-Tat titer GMT: Rat; for GMT: rats, week 5, against rTat REK, FIG. 11
Method: (§1) Immunogens prepared as described in Example 1 were taken up in buffered saline and injected IP in mice and rats, and SC in rabbits. Unless otherwise stated mice were immunized IP with 1 mg of Immunogen at Day 0 and Week 2 and serums were obtained at Week 4 for titration. Other regimens and species were as noted in the figures.
(§2) Serums were assayed to determine anti-Tat titers by conventional ELISA methods. Briefly, Maxisorp Immuno plates were coated with 2 ng/well rTat and incubated at 22° C. for 1 hour or 4° C. overnight. After thorough washing with 0.1% triton X 100 buffer, blocking with 1% bovine serum albumin (BSA) and rewashing, serum dilutions were applied and incubated at 22° C. for 1 hour. After incubation, the plates were thoroughly washed with triton-X 100 buffer again and 1/10,000 goat anti-mouse IgG-horseradish peroxidase (HRP) conjugate (or the appropriate reagent for rat or rabbit) was applied. The plates were then incubated for 1 hour at 22° C. then washed thoroughly and developed with ABTS for 45 minutes at room temperature on a shaker table. Absorbance was measured at 405 nm. Control wells lacking serum were measured and the titration endpoint was the reciprocal of the […] dilution with an OD greater than mean+8 SDs.
(§3) Animals were purchased from Harlan Laboratories and acclimated at Molecular Diagnostic Services, Inc., for at least one week before immunization. Both BALBc and C57BL6/BALBc F1 mice were used. Lewis rats were used as indicated. Immunogens prepared as described in Example 1 were taken up in buffered saline and injected IP in mice and rats, and administered subcutaneously in Cynomolgous macaque. Animals were immunized with immunogen at Day 0 and Week 2 (day 14) and serums were obtained at Week 4 (day 28) for titration. Doses/animal are noted in Table 4, along with their anti-Tat titers.
Three rats per group were immunized with a different dosage per group of a mixture of all of the experimental immunogens encompassed by the formula Pam3[…] -S-V-D-P-(R/K/N/S)-L-(E/D)-P-W-(K/N)-H-P-G-S-amide (SEQ ID NO: 63); Tat amino acid residue 7, 9, and 12 “wobbles”) with a polar charged sequence flanked by the linkers of the Pam3C (i.e., -S-K-K-K-K-S-). This immunogen is referred to as “TUTI-K4”. Each rat was administered a dose of either 0.1 mg TUTI-K4, or 1 mg TUTI-K4 or 10 mgs TUTI-K4 at day 0. Each rat was boosted with the same dose at week 3. The serum antibody titers for each rat were measured against the full length recombinant Tat (AA 1-72) REK variant protein.

HIV-1 Tat (rTat) = assay: Anti-Tat serum antibody titer (ELISA on rTat) after immunization of Cynomolgous macaque; format: in vivo; settings: 10.0 mg/animal subcutaneously at Day 0 and Week 2
Method: as §2
as §3, with “Animals were immunized with immunogen at Day 0 and Week 2 (day 14) and serums were obtained at Week 4 (day 28) for titration. Doses/animal are noted in Table 4, along with their anti-Tat titers.” left out

[2] = Toxicity of immunogen dose in mice; format: in vivo; settings: Mouse; 10.0 mg/animal (400 mg/kg)
Excerpt: as §3

[3] = tested on: HIV-1 Tat (rTat, AA 1-72 variants); assay: Anti-Tat serum antibody titer (ELISA on rTat) after immunization of mice; format: in vivo, mouse; settings: for 4 week anti-Tat titer GMT: Mouse; for Titer, GMT: mice, 1.0 mg/mouse IP
Method: as §1, §2, §3
Animals were purchased from Harlan Laboratories and acclimated at Molecular Diagnostic Services, Inc., for at least one week before immunization. Both BALBc and C57BL6/BALBc F1 mice were used. Pam2C-capped immunogens prepared as described in Example 1 were taken up in buffered saline and injected IP. Mice were immunized with 3 injections of 1.0 mg/mouse Pam2C-capped immunogen with titrations before first boost and 2 weeks after each boost according to Table 5.

[4] = tested on: full length recombinant Tat; assay: Tat depletion assay (rat immune serum on Protein A beads, sandwich ELISA); format: binding, HIV-1; settings: said to be associated with the week 5 titers at all doses (0.1, 1, 10 mg)
Method: Classical techniques to measure Tat depletion could not be used due to the lack of a membrane that retained antibody but permitted rTat diffusion. Briefly, this assay employs beads coated with antibody which are exposed to rTat and incubated. The antibody binds the Tat, depending upon the amount of Tat in solution. This assay thus measures how well the antibodies in the serum deplete the quantity of full length recombinant Tat.
Control: Normal rat serum not-immunized with HIV-1 Tat B cell epitopes (10% or 1%) was bound to Protein A beads and washed.
Samples: IgG of 10% and 1% serum of the immunized rat were bound to Protein A beads and washed. Undiluted serum has an anti-Tat titer of 1,000,000, as determined according to the method described in Example 3.
Both the Protein A beads of control and of samples were then incubated at room temperature for 30 minutes with a rTat solution. After centrifugation, the levels of Tat in supernatant were measured with a sandwich ELISA. The free Tat after exposure to 10% or 1% immune serum protein A coated beads was expressed as a percentage of the free Tat after exposure to 10% or 1% normal […] serum protein A coated beads, respectively.

[5] = 1.0 mg/animal IP at Day 0 and Week 2

## Pam3C-SSQYIKANSKFIGITELSVDP-(R/K/N/S)-L-(E/D)-P-W-(K/N)-H-P-G-S-amide [Pam3-QYIK-TEP1]
[1]; [5]
  4 week anti-Tat titer GMT: 170,000
[1]; 10.0 mg/animal IP at Day 0 and Week 2
  4 week anti-Tat titer GMT: 460,000
[1]; single rat, prime day 0, boosts at 3 and 6 weeks, bleed at 8 weeks, on all eight rTat (AA1-72) variants, FIG. 9
  antibody titers (GMT) in serum: > 1,000,000
HIV-1 Tat (rTat)
  4 week anti-Tat titer GMT: 900,000
[2]
  toxicity: Lethal**
[3]; [5]
  4 week anti-Tat titer GMT: 120,000*
[3]; 3.0 mg/animal IP at Day 0 and Week 2
  4 week anti-Tat titer GMT: 220,000
[3]; single mouse, on all eight rTat (AA 1-72) immunodominant epitope variants, FIG. 2
  geometric mean antibody titers in serum: > 100,000

## Pam2C-SSQYIKANSKFIGITELSVDP-(R/K/N/S)-L-(E/D)-P-W-(K/N)-H-P-G-S-amide [Pam2-QYIK-TEP1]
[3]; prime boost D0, W2, W4, bleed week 2
  Titer, GMT: 140,000
[3]; prime boost D0, W2, W4, bleed week 4
  Titer, GMT: 950,000
[3]; prime boost D0, W2, W4, bleed week 6
  Titer, GMT: 750,000
[3]; prime boost D0, W3, W6, bleed week 3
  Titer, GMT: 160,000
[3]; prime boost D0, W3, W6, bleed week 5
  Titer, GMT: 930,000
[3]; prime boost D0, W3, W6, bleed week 8
  Titer, GMT: 3,300,000
[3]; prime boost D0, W4, W8, bleed week 4
  Titer, GMT: 70,000
[3]; prime boost D0, W4, W8, bleed week 6
  Titer, GMT: 400,000
[3]; prime boost D0, W4, W8, bleed week 10
  Titer, GMT: 3,000,000

## Pam3C-SKKKKSQYIKANSKFIGITEL -S-V-D-P-(R/K/N/S)-L-(E/D)-P-W-(K/N)-H-P-G-S-amide [TUTI-K4]
[4]
  reduction of free Tat levels: greater than 99%
[1]; 0.1 mg at day 0 and week 3
  GMT: about 500,000
[1]; 1 mg at day 0 and week 3
  GMT: about 1,000,000
[1]; 10 mg at day 0 and week 3
  GMT: about 1,000,000
